Data from ChEMBL document CHEMBL3832069, “DailyMed|setid=b463cd5f-299a-45f8-a1b3-c9e7fe271955 | INDOMETHACIN- indomethacin capsule|PD-Rx Pharmaceuticals, Inc”.

Experiments:
Assay type in all cases: ADME, organism-based
[1] = (§1) Pharmacokinetic parameters for Indomethacin evaluated after single oral administration of 25 or 50 mg Indomethacin capsules.; design: dose 25 mg, dose 50 mg, route oral; details: human, in vivo, dosed compound id 57, dosed compound name INDOMETHACIN, regimen Single dose, tissue Plasma
Homo sapiens = assay: as §1; design: dose 25 mg, dose 50 mg, route oral; details: in vivo, po, dosed compound id 57, dosed compound name INDOMETHACIN, regimen Single dose, tissue Plasma
[2] = Pharmacokinetic parameters for Indomethacin evaluated after oral administration of Indomethacin capsules.; details: human, in vivo, dosed compound id 57, dosed compound name INDOMETHACIN, tissue Plasma

Cmax ([1]; po): 1000 ng/mL
Tmax ([1]; dose 25 mg, route oral): 2 h
Cmax (Homo sapiens): 2000 ng/mL
bioavailability [2]: 100%
half-life [2]: 4.5 h
fraction unbound ([2]; read-out: Protein binding): 0.01
SMILES: COc1ccc2c(c1)c(CC(=O)O)c(C)n2C(=O)c1ccc(Cl)cc1 [INDOMETHACIN]
